The values below come from paper PMC9733911 (2022).

The term Kd denotes the equilibrium constant for the complex coming apart.

The subject of this assay is d(CTG)16 (DNA, repeat) GGGCTGCTGCTGCTGCTGCTGCTGCTGCTGCTGCTGCTGCTGCTGCTGCTGCCC
The experiment in a line: ITC. The following applies: monomer alone.

Each structure is given as a SMILES string.

`N=C(NCCCCNc1nc(N)nc(NCc2ccc(C=O)cc2)n1)c1ccc(C(=N)NCCCCNc2nc(N)nc(NCc3ccc(C=O)cc3)n2)cc1` displayed a Kd of 81.6 ± 0.9 µM.
For `N=C(NCCCCNc1nc(N)nc(NCc2ccc(N)cc2)n1)c1ccc(C(=N)NCCCCNc2nc(N)nc(NCc3ccc(N)cc3)n2)cc1`, the Kd is more than 100 µM.
